Assay results taken from patent US20150306178A1, “METHODS AND COMPOSITIONS FOR TREATING AND PREVENTING TINNITUS” (Auris Medical AG, priority 2014, published 2015).
Several values for one entry are separate records, joined by “and”; a condition that tells them apart may be missing. Equal entries are not always repeated. Where no end group is shown, it is not given here. [ ]: non-standard residue; d: D form.

Columns and labels:
ASNHL-related tinnitus = assay: Double-blind, randomized, placebo-controlled phase II study of AM-111 in ASNHL and associated tinnitus; type: in vivo, human; details: for Number of Subjects with Tinnitus/Number of Subjects with Observation (%): Safety Population; for Complete ASNHL-Related Tinnitus Remission in the Treated Ear, Frequency (%): time point Overall, mITT
Experimental: A double-blind, randomized, placebo-controlled phase II study was conducted to evaluate the efficacy and safety of AM-111 in treating ASNHL and associated tinnitus. Eligible participants were aged 18 to 60 years and suffered from ASNHL (unilateral idiopathic sudden sensorineural hearing loss (ISSNHL), uni- or bilateral acute acoustic trauma (AAT)) with hearing loss of at least 30 dB and onset not more than 48 hours previously. The hearing loss was determined against a reference value: mean hearing threshold at the 3 most affected contiguous test frequencies (pure tone average, PTA) less corresponding mean hearing threshold of the contralateral ear (Plontke et al., 2007). In case of previously asymmetric hearing or bilateral ASNHL, thresholds from a previous audiogram or ISO-7029; 2000 norm values served as reference. The PTA frequencies determined at baseline remained fixed for all evaluations.
Exclusion criteria included history of Meniere's disease, autoimmune or radiation induced hearing […] loss, endolymphatic hydrops or fluctuating hearing loss, suspected perilymph fistula, membrane rupture or retrocochlear lesion, barotrauma, air-bone gap >20 dB in 3 contiguous frequencies, previous ASNHL incident within the past 6 weeks, and acute or chronic otitis media or otitis externa. Women who were breast feeding, pregnant or who planned a pregnancy during the study, or women of childbearing potential who declared being unwilling or unable to practice an effective method of […] contraception were excluded. Written informed consent was obtained from each patient prior to the performance of any study-specific procedures.
At baseline (Day 0), study participants were randomized to receive AM-111 (0.4 or 2.0 mg/mL) or placebo at a 2:1 ratio. The study consisted of a baseline assessment and 4 follow-up visits on Days 3, 7, 30, and 90. Baseline assessments included a general physical examination, vital signs, and a urine pregnancy test for women of childbearing age. At each study visit pure tone hearing thresholds, speech discrimination at 60 and 80 dB, and subjective tinnitus loudness were determined. Those patients reporting tinnitus were asked to rate its loudness “right now” on a numerical scale ranging from 0 (no tinnitus) to 10 (extremely loud).
Approximately 0.25 mL of the study drug was administered on Day 0 by intratympanic (i.t.) injection under local anesthesia through a small myringotomy with the patient's head placed in a position tilted 45° towards the unaffected ear. Patients remained in their reclined or supine position for approximately 30 minutes to allow for diffusion of the active substance into the cochlea. In case of bilateral AAT, only the worst affected ear was treated. Subjects whose PTA recovered <10 dB from baseline to Day 7 were given the option to receive oral prednisolone 50 mg (Ratiopharm, Ulm, Germany) b.i.d. for 5 days.
The sample size was determined based on an expected effect size of 0.6, a two-sided type I error rate of 5% and a statistical power of 80%.
Efficacy analyses were primarily performed on a modified “Intention to treat” (mITT) analysis set (treated patients with PTA measured on Day 3±1 or Day 7+4 days at most) and secondarily on the “Per Protocol” (PP) analysis set. The “Safety Population” analysis set included all patients who received an injection of the study medication. Random imputation was performed for missing PTA values at Days 7 and 30, and missing speech discrimination score (SDS) values at Day 7 based on the preceding value and the mean change observed in the respective treatment group (mITT set).
For continuous efficacy endpoints, analysis of covariance (ANCOVA) models were used including treatment group and initial frequency range as class effects, and baseline values of the respective endpoint as covariate. For the complete recovery rate, a logistic regression model was applied including treatment, initial frequency range, and baseline hearing loss as predictor variables. […]

[1] = tested on: models of cochlear insult; details: acute noise trauma, acute labyrinthitis, aminoglycoside ototoxicity, bacterial infection, cochlear ischemia, cochlear implantation trauma; cited from earlier work
c-Jun/JNK complex = details: in vitro and in intact cells; Holzberg et al. 2003; cited from earlier work

AM-111: 31-amino acid cell-permeable peptide (SEQ ID NO: 2, all-D), islet-brain 1 effector domain fused to TAT, formulated in a biocompatible hyaluronic acid gel ([dD][dQ][dS][dR][dP][dV][dQ][dP][dF][dL][dN][dL][dT][dT][dP][dR][dK][dP][dR][dP][dP][dR][dR][dR][dQ][dR][dR][dK][dK][dR]G)
Number of Subjects with Tinnitus/Number of Subjects with Observation (%) (ASNHL-related tinnitus; AM-111 0.4 mg/mL single i.t. injection, Day 0, after study drug, 53/56 subjects with ASNHL-related tinnitus): 53/56 (94.6) %
Number of Subjects with Tinnitus/Number of Subjects with Observation (%) (ASNHL-related tinnitus; AM-111 0.4 mg/mL single i.t. injection, Day 3, 51/56 subjects): 51/56 (91.1) %
Number of Subjects with Tinnitus/Number of Subjects with Observation (%) (ASNHL-related tinnitus; AM-111 0.4 mg/mL single i.t. injection, Day 7, 42/55 subjects): 42/55 (76.4) %
Number of Subjects with Tinnitus/Number of Subjects with Observation (%) (ASNHL-related tinnitus; AM-111 0.4 mg/mL single i.t. injection, Day 30, 26/55 subjects): 26/55 (47.3) %
Number of Subjects with Tinnitus/Number of Subjects with Observation (%) (ASNHL-related tinnitus; AM-111 0.4 mg/mL single i.t. injection, Day 90, 19/50 subjects, placebo 56.0%): 38.0% and 19/50 (38.0) %
Complete ASNHL-Related Tinnitus Remission in the Treated Ear, Frequency (%) (ASNHL-related tinnitus; AM-111 0.4 mg/mL, All Subjects N = 50 (35 subjects), placebo 54.9%, p=0.151): 35 (70.0%)
Complete ASNHL-Related Tinnitus Remission in the Treated Ear, Frequency (%) (ASNHL-related tinnitus; AM-111 0.4 mg/mL, Mild to Moderate hearing loss subgroup N = 25 (21 subjects), placebo 78.6%, p=0.732): 21 (84.0%)
Number of Subjects with Tinnitus/Number of Subjects with Observation (%) (ASNHL-related tinnitus; AM-111 2.0 mg/mL single i.t. injection, Day 0, after study drug, 58/59 subjects): 58/59 (98.3) %
Number of Subjects with Tinnitus/Number of Subjects with Observation (%) (ASNHL-related tinnitus; AM-111 2.0 mg/mL single i.t. injection, Day 3, 59/59 subjects): 59/59 (100) %
Number of Subjects with Tinnitus/Number of Subjects with Observation (%) (ASNHL-related tinnitus; AM-111 2.0 mg/mL single i.t. injection, Day 7, 51/58 subjects): 51/58 (87.9) %
Number of Subjects with Tinnitus/Number of Subjects with Observation (%) (ASNHL-related tinnitus; AM-111 2.0 mg/mL single i.t. injection, Day 30, 35/56 subjects): 35/56 (62.5) %
Number of Subjects with Tinnitus/Number of Subjects with Observation (%) (ASNHL-related tinnitus; AM-111 2.0 mg/mL single i.t. injection, Day 90, 28/54 subjects, placebo 56.0%): 51.9% and 28/54 (51.9) %
Complete ASNHL-Related Tinnitus Remission in the Treated Ear, Frequency (%) (ASNHL-related tinnitus; AM-111 2.0 mg/mL, All Subjects N = 56 (31 subjects), placebo 54.9%, p=1.000): 31 (55.4%)
Complete ASNHL-Related Tinnitus Remission in the Treated Ear, Frequency (%) (ASNHL-related tinnitus; AM-111 2.0 mg/mL, Mild to Moderate hearing loss subgroup N = 27 (17 subjects), placebo 78.6%, p=0.245): 17 (63.0%)
Number of Subjects with Tinnitus/Number of Subjects with Observation (%) (ASNHL-related tinnitus; AM-111 Total (0.4 and 2.0 mg/mL groups), Day 0, after study drug, 111/115 subjects): 111/115 (96.5) %
Number of Subjects with Tinnitus/Number of Subjects with Observation (%) (ASNHL-related tinnitus; AM-111 Total (0.4 and 2.0 mg/mL groups), Day 3, 110/115 subjects): 110/115 (95.7) %
Number of Subjects with Tinnitus/Number of Subjects with Observation (%) (ASNHL-related tinnitus; AM-111 Total (0.4 and 2.0 mg/mL groups), Day 7, 93/113 subjects): 93/113 (82.3) %
Number of Subjects with Tinnitus/Number of Subjects with Observation (%) (ASNHL-related tinnitus; AM-111 Total (0.4 and 2.0 mg/mL groups), Day 30, 61/111 subjects): 61/111 (55.0) %
Number of Subjects with Tinnitus/Number of Subjects with Observation (%) (ASNHL-related tinnitus; AM-111 Total (0.4 and 2.0 mg/mL groups), Day 90, 47/104 subjects): 47/104 (45.2) %
Complete tinnitus remission, AM-111 treatment groups versus placebo (ASNHL-related tinnitus; subgroup mild to moderate hearing loss, Fisher's Exact Test): no statistically significant differences
Otoprotection in models of cochlear insult [1]: otoprotective

Ac-YGRKKRRQRRR-gaba-ILKQSMTLNLADPVGSLKPHLRAKN-NH2 (YGRKKRRQRRRXILKQSMTLNLADPVGSLKPHLRAKN; N-acetyl; GABA spacer; C-terminal amide) [SEQ ID NO: 45, cell-permeable 37-mer peptide of human c-Jun delta domain and HIV-TAT protein transduction domain fused by a GABA spacer]
Disruption of c-Jun/JNK complex formation and subsequent phosphorylation and activation of c-Jun by JNK (c-Jun/JNK complex): specifically disrupt c-Jun/JNK complex formation
